Assay [1] has as its system histamine-induced contractions of isolated ileum. Nature of the assay: Antagonism of histamine-induced contractions of isolated guinea-pig ileum. In kind it is cell-based. Conditions: histamine 1×10^-5 M, contact time one minute, 37° C., read-out: Antagonistic to Histam., IC50. The method, then: (§1) The interaction of the compounds with different receptors was evaluated on the isolated ileum of a guinea-pig according to the following method.
(§2) 2.5-3 cm segments of the guinea-pigs, ileum were washed and immediately suspended in a bath containing 10 ml of a Tyrode solution at 37° C. and aerated with a mixture of oxygen (95%) and carbon dioxide (5%). After a stabilization period of at least 30 minutes, the contractions are recorded, maintaining the preparation under constant pressure of 1 g, using a sensor connected to a polygraph. […] The following dose was only added to the bath after the preparation returned to its base line. Arecoline was used as reference product. The antagonistic action was evaluated on contractions induced by acetylcholine (1×10^-6 M), histamine (1×10^-5 M) and barium chloride (2×10^-5 M). […] The contact time before adding the agonist was one minute.
(§3) For each compound the dose-response curves are obtained with 4 to 6 different concentrations and 3 to 5 independent tests. The agonistic activity is expressed by pD2 (negative logarithm of the dose which produces 50% of the maximum effect). The antagonistic activity is expressed by IC50 (concentration inhibiting 50% of the maximum response).

A further assay has as its target T1, Muscarinic receptor 1 (Rattus norvegicus, UniProt P08482).
T1 construct: cortex removed from the brains of male rats weighing 150 to 200 g (Iffa Credo); from tissue; host or cells: rat cerebral cortex homogenate
T1 sequence (P08482 1-460): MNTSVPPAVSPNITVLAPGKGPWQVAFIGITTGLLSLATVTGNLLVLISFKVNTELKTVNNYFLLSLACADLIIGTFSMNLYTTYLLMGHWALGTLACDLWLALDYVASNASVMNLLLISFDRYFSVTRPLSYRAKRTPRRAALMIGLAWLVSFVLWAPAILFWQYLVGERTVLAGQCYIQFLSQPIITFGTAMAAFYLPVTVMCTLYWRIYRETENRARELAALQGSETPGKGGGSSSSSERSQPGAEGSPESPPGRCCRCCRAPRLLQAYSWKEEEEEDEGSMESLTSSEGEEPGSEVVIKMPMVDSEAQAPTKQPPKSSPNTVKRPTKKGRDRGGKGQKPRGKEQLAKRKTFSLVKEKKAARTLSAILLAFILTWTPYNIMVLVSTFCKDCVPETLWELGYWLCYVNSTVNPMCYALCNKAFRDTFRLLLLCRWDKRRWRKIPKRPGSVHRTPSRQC
In words: Affinity for the muscarinic M1 receptor ([^3 H]pirenzepine binding, rat cortex). Conditions: 0.25 nM ^3 H pirenzepine, 60 min, 25° C., pH 7.4. As to the method:
Its preparation is carried out from cortex removed from the brains of male rats weighing 150 to 200 g (Iffa Credo) ground up in a Polytron in a 10 mM Na/K pH 7.4 buffer. After incubation (0.5 ml aliquots of homogenate) for 60 minutes at 25° C. in the presence of 0.25 nM of ^3 H pirenzepine either on its own, or with the product to be tested, or with an excess of pirenzepine at 10^-5 M (in order to determine the non-specific fixed radioactivity), the incubates are cooled down and filtered.
The filtration is carried out on Whatman GF/C filters prewashed in a 0.05% polyethylene imine solution. The filters are rinsed with 3×5 ml of 10 mM Na/K pH 7.4 phosphate buffer, then measurements are carried out by liquid scintillation.
(§4) The results are expressed in IC50 (concentration necessary to inhibit 50% of the fixed specific radio-activity).

The next assay has as its system isolated ileum. Nature of the assay: Agonistic action on isolated guinea-pig ileum. Format: cell-based. Conditions: negative logarithm of the dose producing 50% of the maximum effect; for EC50: Cavia porcellus, read-out: Agonistic action pD2 (converted). The method, then: as §1, §2, §3
In assay [2] the test system is barium chloride-induced contractions of isolated ileum. In words: Antagonism of barium chloride-induced contractions of isolated guinea-pig ileum. In kind it is cell-based. Particulars: read-out: Antagonistic to BaCl2, IC50. As to the method: as §1, §2, §3
For another assay, the target named is Muscarinic receptor 2. Nature of the assay: Affinity for the muscarinic M2 receptor ([^3 H]quinuclidinyl benzylate binding, rat brain). Conditions: 0.3 nM ^3 H quinuclidinyl benzylate, 60 min, 25° C., pH 7.5. As to the method: The preparation is carried out from the brains of male rats weighing 150 to 200 g (Iffa Credo).
The brains are ground up (Teflon-glass) in a 0.32 M sucrose solution. The homogenate is centrifuged for 10 minutes at 1000 g (0-4° C.).
The supernatant obtained is collected and centrifuged again at 30000 g for 15 minutes (0-4° C.).
The deposit is put in suspensions in a 50 mM Tris pH 7.5 buffer and the new homogenate is centrifuged again at 30000 g for 15 minutes (0-4° C.).
After elimination of the supernatants, the deposits can be used immediately or kept for up to one month at -30° C.
For one experiment the deposits are firstly defrosted, if necessary, at ambient temperature and put in suspension using a Dounce grinder in a 50 mM Tris pH 7.5 buffer. 2 ml aliquots are incubated for 60 minutes at 25° C. in the presence of 0.3 nM of
^3 H quinuclidinyl benzylate either on its own, or with the product to be tested, or with benzatropine at 10^-5 M in order to determine the non-specific fixed radioactivity.
At the end of the incubation, the tubes of incubate are cooled down to 4° C. and the incubate is filtered rapidly on Whatman GF/C filters. The filters are rinsed with 3×5 ml of 50 mM Tris pH 7.5 buffer then measurements are carried out by liquid scintillation (Henry I Yamamura, Solomon H. Synder, Proc. Nat. Acad Sc. (1974) 71, No. 5, 1725-1729).
as §4

Assay [3] deals with acetylcholine-induced contractions of isolated ileum. Nature of the assay: Antagonism of acetylcholine-induced contractions of isolated guinea-pig ileum. In kind it is cell-based. Conditions: read-out: Antagonistic to ACh, IC50. As to the method: as §1, §2, §3
The test system of assay [4] is cholinomimetic effects induced by carbachol. Nature of the assay: In vivo anti-cholinergic action: inhibition of cholinomimetic effects induced by carbachol in mice. Further details: species or system CD1 male mice. Conditions: for ED50 / ED (1 degree C): Mus musculus, ip, 0.5 h; for ED (1 degree C): rectal temperature, read-out: Dose changing body temperature (hypothermic effect of carbachol) by 1° C. As to the method:
The anti-cholinergic activity of the compounds was determined by evaluating the capacity to inhibit the cholino-mimetic effects induced by carbachol. Atropine sulphate was used as reference product.
CD1 male mice weighing 25 to 30 g are used. They are divided into groups of 6 animals and treated by intraperi-toneal route at scalar doses of the products or 0.25% Methocel for the controls. 12 animals are used for each dose. 30 minutes after the administration of the compounds, 1 mg/kg of carbachol, dissolved in physiological serum, was injected into the mice by sub-cutaneous route.
Each animal was examined 30 minutes after the injection of carbachol to evaluate the presence of diarrhoea, salivation and weeping; the body temperature was also measured using a thermocouple inserted 1.5 cm inside the rectum.
For each compound, we have determined the dose which can inhibit, in 50% of the animals, the appearance of cholinomimetic symptoms induced by carbachol and […] the hypothermic effect induced by the cholinergic agent by 1° C.

[5] abbreviates: Cavia porcellus, barium chloride 2×10^-5 M, contact time one minute, 37° C.
The mark [6] stands for this setting: Cavia porcellus, acetylcholine 1×10^-6 M, contact time one minute, 37° C.
Where [7] appears, read: i.p., 30 min before carbachol 1 mg/kg s.c., read-out: Dose inhibiting diarrhoea in 50% of the animals.
[8] abbreviates: i.p., 30 min before carbachol 1 mg/kg s.c., read-out: Dose inhibiting salivation in 50% of the animals.
Where [9] appears, read: i.p., 30 min before carbachol 1 mg/kg s.c., read-out: Dose inhibiting weeping in 50% of the animals.
The mark [10] stands for this setting: i.p., 30 min before carbachol 1 mg/kg s.c.

Like-named read-outs stand apart in the source and are kept apart here. A value given as a limit tells only on which side of the number the result lay.

Consider “1-[[4-(dimethylamino)-phenyl]-sulphonyl]-4-(2,2-dimethyl-1-oxo-propoxy)-2-pyrrolidinone [Example 2]”, for which the IC50 (commonly the concentration that inhibits the measured activity by half) in assay [1] was above 10 µM; on Muscarinic receptor 1 it was 0.72 µM; in assay [2] (barium chloride 2×10^-5 M, contact time one minute, 37° C.) it was above 10 µM; on Muscarinic receptor 2 it was above 5 µM; in assay [3] (acetylcholine 1×10^-6 M, contact time one minute, 37° C.), 5.5 µM. Moreover, the “Agonistic action pD2” value with isolated ileum is listed as below 4.

As for `COC(=O)C1=CCCN(C)C1` [Arecoline, reference compound], the EC50 with isolated ileum is 0.209 µM.

For the compound `CN1[C@@H]2CC[C@H]1C[C@@H](OC(=O)C(CO)c1ccccc1)C2` (stereo partly shown) [Atropine, reference compound], the ED50 amounted to 0.04 mg/kg in assay [4] (read-out: Dose inhibiting diarrhoea in 50% of the animals), 0.06 mg/kg in assay [4] (read-out: Dose inhibiting salivation in 50% of the animals) and 0.05 mg/kg in assay [4] (read-out: Dose inhibiting weeping in 50% of the animals). Moreover, the half-inhibitory concentration (IC50) in assay [3] (Cavia porcellus) was 0.0095 µM.

On to `C[N+](C)(C)CCOC(N)=O` [Carbochol, carbachol, reference compound], for which, in assay [4] (1 mg/kg s.c., control mice), the “decrease of the rectal temperature” value was “about 2.5 °C”; the “induction of diarrhoea, salivation and weeping” value is “induced diarrhoea, salivation and weeping in all the control mice”.

Consider `CCN(CC)c1ccc(S(=O)(=O)N2CC(O)CC2=O)cc1` (stereo not shown) [Example 1, 1-[[4-(diethylamino)-phenyl]sulphonyl]-4-hydroxy-2-pyrrolidinone], for which the IC50 in assay [1] (Cavia porcellus) is above 10 µM; on Muscarinic receptor 1 it was 0.37 µM; in assay [2] (setting [5]), above 10 µM; at Muscarinic receptor 2 it was above 5 µM; in assay [3] (setting [6]) it was 0.86 µM. Besides, the EC50 in the assay with isolated ileum is above 100 µM.

Take `CCN(CC)c1ccc(S(=O)(=O)N2CC(O)CC2=S)cc1` (stereo not shown) [Example 3, 1-[[4-(diethylamino)-phenyl]-sulphonyl]-4-hydroxy-2-pyrrolidine thione]: the IC50 in assay [1] (Cavia porcellus) was above 10 µM; on Muscarinic receptor 1 it was 0.37 µM; in assay [2] (setting [5]) it was above 10 µM; on Muscarinic receptor 2, above 5 µM; in assay [3] (setting [6]), 3 µM. For the same compound, in the assay on isolated ileum, the EC50 was above 100 µM.

`O=C1CC(O)CN1S(=O)(=O)c1ccc(N2CCCCC2)cc1` (stereo not shown) [Example 4, 4-hydroxy-1-[[4-(1-piperidinyl)-phenyl]-sulphonyl]-2-pyrrolidinone]: the IC50 in assay [1] (Cavia porcellus) is above 10 µM; at Muscarinic receptor 1, 0.56 µM; in assay [2] (setting [5]), 2.5 µM; on Muscarinic receptor 2, 10 µM; in assay [3] (setting [6]), 1.2 µM. Moreover, the EC50 in the assay with isolated ileum is above 100 µM.

`O=S(=O)(c1ccc(N2CCCCC2)cc1)N1CC(O)CC1=S` (stereo not shown) [Example 5]: the IC50 in assay [1] (Cavia porcellus) is above 10 µM; at Muscarinic receptor 1, 0.17 µM; in assay [2] (setting [5]), above 10 µM; on Muscarinic receptor 2 it was above 5 µM; in assay [3] (setting [6]) it was 1.4 µM. The EC50 in the assay with isolated ileum is above 100 µM. Also, the ED50 in assay [4] (setting [7]) was 6 mg/kg; in assay [4] (setting [8]) it was 50 mg/kg; in assay [4] (setting [9]) it was above 50 mg/kg. In addition, the ED (1 degree C) in assay [4] (setting [10]) amounted to 25 mg/kg. In addition, the “selectivity of in vivo anticholinergic action (in words)” value in assay [4] (contrary to atropine) is reported as “selective anticholingeric action at the level of the intestinal musculature”.

`O=C1CC(O)CN1S(=O)(=O)c1ccc(N2CCCCCC2)cc1` (stereo not shown) [Example 6, 1-[[4-(hexahydro-1H-azepin-1-yl)-phenyl]-sulphonyl]-4-hydroxy-pyrrolidinon]: the IC50 was above 10 µM in assay [1] (Cavia porcellus), 0.062 µM on Muscarinic receptor 1, 2.5 µM in assay [2] (setting [5]) and 0.11 µM in assay [3] (setting [6]). Besides, the EC50 with isolated ileum was above 100 µM. In addition, the ED50 is 12 mg/kg in assay [4] (setting [7]), above 50 mg/kg in assay [4] (setting [8]) and above 50 mg/kg in assay [4] (setting [9]). Further, in assay [4] (setting [10]), the ED (1 degree C) was 50 mg/kg.

Consider `O=S(=O)(c1ccc(N2CCCCCC2)cc1)N1CC(O)CC1=S` (stereo not shown) [Example 7, 1-[[4-(hexahydro-1H-azepin-1-yl)-phenyl]-sulphonyl]-4-hydroxy pyrrolidine thione], for which the IC50 in assay [1] (Cavia porcellus) is above 10 µM; at Muscarinic receptor 1, 0.083 µM; in assay [2] (setting [5]) it was 3.6 µM; in assay [3] (setting [6]), 0.51 µM. Further, the EC50 with isolated ileum is above 100 µM. The results for the ED50 in assay [4] (setting [7]), in assay [4] (setting [8]) and in assay [4] (setting [9]) were 5 mg/kg, 50 mg/kg and above 50 mg/kg, respectively. For the same compound, the ED (1 degree C) in assay [4] (setting [10]) amounted to 20 mg/kg.

On to `COc1ccc(Cc2nccc3cc(OC)c(OC)cc23)cc1OC` [Papaverine, papaverine, reference compound], for which the IC50 in assay [2] (Cavia porcellus) stood at 45 µM.
